In patent publication US20190152962A1, “CYCLOPROPYL DERIVATIVES AS ROR-GAMMA MODULATORS” (CADILA HEALTHCARE LIMITED, priority 2016, published 2019) one finds IC50 data, which are given here for 19 compounds.

The target of one experiment is T1, full length human RORγt (Homo sapiens, UniProt P51449).
T1 construct: full length human RORγt together in COS-7 cells; expressed in transfected cells; host or cells: COS-7
T1 sequence (P51449 1-497 isoform P51449-2): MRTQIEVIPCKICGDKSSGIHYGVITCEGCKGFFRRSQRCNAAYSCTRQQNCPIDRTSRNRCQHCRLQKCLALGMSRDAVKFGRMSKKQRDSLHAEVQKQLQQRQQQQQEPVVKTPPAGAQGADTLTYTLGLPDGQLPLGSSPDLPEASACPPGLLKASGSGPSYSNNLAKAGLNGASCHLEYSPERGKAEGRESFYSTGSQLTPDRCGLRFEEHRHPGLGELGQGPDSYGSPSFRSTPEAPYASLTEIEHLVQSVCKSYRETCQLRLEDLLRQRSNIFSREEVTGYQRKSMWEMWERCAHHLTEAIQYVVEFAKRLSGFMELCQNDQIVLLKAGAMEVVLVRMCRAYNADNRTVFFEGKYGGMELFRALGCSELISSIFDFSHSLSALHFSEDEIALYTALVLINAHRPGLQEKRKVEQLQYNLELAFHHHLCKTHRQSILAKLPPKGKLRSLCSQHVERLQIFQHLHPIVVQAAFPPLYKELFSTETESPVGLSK
Nature of the experiment: 5×RORE based luciferase assay. The note with it: COS-7 cells transfected with 5×RORE-Luc and hRORγt, 18-20 h treatment. The format is cell-based. The method, then: Human RORγt (hRORγt) inhibitors were screened in RORE (RORγt Response Element) based Luciferase assay by transient transfection of 5×RORE (5 tandem repeats of RORγt Response Element) and full length human RORγt together in COS-7 cells. COS-7 cells were maintained as monolayer in complete DMEM (High Glucose) medium in presence of 2 mM Glutamin and 1× Sodium Pyruvate. Day before transfection, 15000 cells were seeded in 96 well cell culture plate in 100 μl antibiotic free medium and incubated at 37° C. in 5% CO2 containing humidified chamber O/N. Prior to transfection, cells were fed with fresh complete growth medium and incubated until the addition of transfection complex. Transfection complex for the required numbers of wells were prepared from pGL2-promoter-5×RORE-Luc plasmid, pcDNA3.1 (+)-hRORγt expression plasmid, pβ-GAL plasmid (transfection control), and Lipofectamine 3000 (Invitrogen). 50 μl of transfection complex were added in 100 μl of complete medium to respective wells, mixed gently and plate was incubated for 5-6 h at 37° C. in 5% CO2 containing humidified chamber. After 5 h of transfection, content of the wells were aspirated and cells were treated with increasing concentration of RORγt inverse agonist in medium devoid of serum with a final DMSO concentration of 0.2% for 18-20 h at 37° C. in 5% CO2 containing humidified chamber. Next day, cells were lysed and the lysates were assayed for luciferase and β-GAL activity using Promega's luciferase assay system and an in-house made β-GAL assay buffer respectively. Luciferase signals were normalized with β-GAL and % activity was determined with respect to that of 10 nM control ligand.
IC50 of selected compounds were then determined by nonlinear regression analysis of % activity, plotted against compound concentration (Table 4).

Experiment [1] has as its system secreted IL-17 in peripheral blood mononuclear cells (PBMCs). The experiment can be described thus: Human IL-17 inhibition assay. The note with it: PBMC, anti-CD3/anti-CD28, 72 h, read-out: IL17 IC50. The format is cell-based. The procedure: Peripheral blood mononuclear cells (PBMCs) were isolated from healthy volunteers and subjected to T cell polarization assay. Two million PBMCs were placed on anti-CD3 (Biolegend, US) coated 96-well plates and 1 μg/mL of anti-CD28 (Biolegend, US) was added along with RORγt inhibitors or the vehicle control and incubated at 37° C. and 5% CO2 for 72 h. At the end of incubation time, the supernatant was collected and analyzed for secreted IL-17 using sandwich enzyme immunoassay (Mabtech AB, Sweden). The results were analyzed using Graphpad Prism and the half-maximal inhibitory concentrations (IC50) of the test compounds were derived (Table 4).

For orientation: IC50 means the point on the concentration scale where inhibition reaches its midpoint. For the compound `CCS(=O)(=O)c1ccc(CC(=O)Nc2cc(Cl)c(C3(c4nc5ccc(F)cc5o4)CC3)c(Cl)c2)cn1` [Example 74, N-(3,5-dichloro-4-(1-(6-fluorobenzo[d]oxazol-2-yl)cyclopropyl)phenyl)-2-(6-(ethylsulfonyl)pyridin-3-yl)acetamide], the values for the IC50 (on full length human RORγt; in experiment [1]) were 23.9 nM and 23.8 nM, respectively.

Turning to `CCS(=O)(=O)c1ccc(CC(=O)Nc2cc(Cl)c(C3(c4noc(-c5ccc(F)c(Cl)c5)n4)CC3)c(Cl)c2)nc1` [Example 47, N-(3,5-dichloro-4-(1-(5-(3-chloro-4-fluorophenyl)-1,2,4-oxadiazol-3-yl)cyclopropyl)phenyl)-2-(5-(ethylsulfonyl)pyridin-2-yl)acetamide], the values for the IC50 (against full length human RORγt; in experiment [1]) were 10.1 nM and 17.9 nM, respectively.

Regarding `CCS(=O)(=O)c1ccc(CC(=O)Nc2cc(F)c(C3(c4noc(-c5ccc(F)cc5)n4)CC3)c(F)c2)cc1` [Example 28, N-(3,5-difluoro-4-(1-(5-(4-fluorophenyl)-1,2,4-oxadiazol-3-yl)cyclopropyl)phenyl)-2-(4-(ethylsulfonyl)phenyl)acetamide], the results for the IC50 (on full length human RORγt; in experiment [1]) were 5.8 nM and 41.6 nM, respectively.

Turning to `CCS(=O)(=O)c1ccc(CC(=O)Nc2cc(F)c(C3(c4noc(-c5ccc(C#N)cc5)n4)CC3)c(Cl)c2)cc1` [Example 32, N-(3-chloro-4-(1-(5-(4-cyanophenyl)-1,2,4-oxadiazol-3-yl)cyclopropyl)-5-fluorophenyl)-2-(4-(ethylsulfonyl)phenyl)acetamide], the IC50 turned out to be 5.96 nM against full length human RORγt and 18 nM in experiment [1].

Turning to `CCS(=O)(=O)c1ccc(CC(=O)Nc2cc(Cl)c(C3(c4noc(C5CC5)n4)CC3)c(Cl)c2)cc1` [Example 25, N-(3,5-dichloro-4-(1-(5-cyclopropyl-1,2,4-oxadiazol-3-yl)cyclopropyl)phenyl)-2-(4-(ethylsulfonyl)phenyl)acetamide], the IC50 on full length human RORγt turned out to be 1.5 nM; in experiment [1] it was 14 nM.

As for `CCS(=O)(=O)c1ccc(CC(=O)Nc2cc(Cl)c(C3(c4nc(-c5ccc(F)cc5)no4)CC3)c(Cl)c2)cc1` [Example 35, N-(3,5-dichloro-4-(1-(3-(4-fluorophenyl)-1,2,4-oxadiazol-5-yl)cyclopropyl)phenyl)-2-(4-(ethylsulfonyl)phenyl)acetamide], the IC50 against full length human RORγt came out at 2.3 nM; in experiment [1] it was 12 nM.

For `CCS(=O)(=O)c1ccc(CC(=O)Nc2cc(Cl)c(C3(c4noc(-c5c(F)cc(F)cc5F)n4)CC3)c(Cl)c2)cc1` [Example 8, N-(3,5-dichloro-4-(1-(5-(2,4,6-trifluorophenyl)-1,2,4-oxadiazol-3-yl)cyclopropyl)phenyl)-2-(4-(ethylsulfonyl)phenyl)acetamide], the IC50 is 11 nM on full length human RORγt and 2.7 nM in experiment [1].

`CCS(=O)(=O)c1ccc(CC(=O)Nc2cc(Cl)c(C3(c4noc(-c5ccc(OC)cc5F)n4)CC3)c(Cl)c2)cc1` [Example 15, N-(3,5-dichloro-4-(1-(5-(2-fluoro-4-methoxyphenyl)-1,2,4-oxadiazol-3-yl)cyclopropyl)phenyl)-2-(4-(ethylsulfonyl)phenyl)acetamide]: the IC50 on full length human RORγt came out at 5.7 nM; in experiment [1], 27 nM.

On to `CCS(=O)(=O)c1ccc(CC(=O)Nc2cc(Cl)c(C3(c4noc(-c5ccc(Cl)cc5Cl)n4)CC3)c(Cl)c2)nc1` [Example 49, N-(3,5-dichloro-4-(1-(5-(2,4-dichlorophenyl)-1,2,4-oxadiazol-3-yl)cyclopropyl)phenyl)-2-(5-(ethylsulfonyl)pyridin-2-yl)acetamide], for which the values for the IC50 (against full length human RORγt; in experiment [1]) were 4.7 nM and 17 nM, respectively.

Regarding `CCS(=O)(=O)c1ccc(CC(=O)Nc2cc(Cl)c(C3(c4noc(-c5ccc(F)cc5Cl)n4)CC3)c(Cl)c2)nc1` [Example 46, N-(3,5-dichloro-4-(1-(5-(2-chloro-4-fluorophenyl)-1,2,4-oxadiazol-3-yl)cyclopropyl)phenyl)-2-(5-(ethylsulfonyl)pyridin-2-yl)acetamide], the IC50 against full length human RORγt is 12.9 nM; in experiment [1] it was 17.1 nM.

In the case of `CCS(=O)(=O)c1ccc(CC(=O)Nc2cc(Cl)c(C3(c4noc(-c5ccc(Cl)c(Cl)c5)n4)CC3)c(Cl)c2)nc1` [Example 48, N-(3,5-dichloro-4-(1-(5-(3,4-dichlorophenyl)-1,2,4-oxadiazol-3-yl)cyclopropyl)phenyl)-2-(5-(ethylsulfonyl)pyridin-2-yl)acetamide], the figures for the IC50 (on full length human RORγt; in experiment [1]) were 10.5 nM and 38.9 nM, respectively.

Take `CCS(=O)(=O)c1ccc(CC(=O)Nc2cc(Cl)c(C3(c4noc(-c5cccs5)n4)CC3)c(Cl)c2)cc1` [Example 16, N-(3,5-dichloro-4-(1-(5-(thiophen-2-yl)-1,2,4-oxadiazol-3-yl)cyclopropyl)phenyl)-2-(4-(ethylsulfonyl)phenyl)acetamide]: the results for the IC50 (at full length human RORγt; in experiment [1]) were 0.9 nM and 42 nM, respectively.

On to `CCS(=O)(=O)c1ccc(CC(=O)Nc2cc(Cl)c(C3(c4noc(-c5ccc(Cl)cc5)n4)CC3)c(Cl)c2)nc1` [Example 50, N-(3,5-dichloro-4-(1-(5-(4-chlorophenyl)-1,2,4-oxadiazol-3-yl)cyclopropyl)phenyl)-2-(5-(ethylsulfonyl)pyridin-2-yl)acetamide], for which the IC50 at full length human RORγt came to 14.5 nM; in experiment [1] it was 30 nM.

For the compound `CCS(=O)(=O)c1ccc(CC(=O)Nc2cc(Cl)c(C3(c4noc(-c5ccc(C)s5)n4)CC3)c(Cl)c2)cc1` [Example 18, N-(3,5-dichloro-4-(1-(5-(5-methylthiophen-2-yl)-1,2,4-oxadiazol-3-yl)cyclopropyl)phenyl)-2-(4-(ethylsulfonyl)phenyl)acetamide], the IC50 is 3.9 nM on full length human RORγt and 23.7 nM in experiment [1].

Turning to `CCS(=O)(=O)c1ccc(CC(=O)Nc2cc(Cl)c(C3(c4noc(-c5ccc(Cl)s5)n4)CC3)c(Cl)c2)cc1` [Example 17, N-(3,5-dichloro-4-(1-(5-(5-chlorothiophen-2-yl)-1,2,4-oxadiazol-3-yl)cyclopropyl)phenyl)-2-(4-(ethylsulfonyl)phenyl)acetamide], the IC50 on full length human RORγt turned out to be 1.9 nM; in experiment [1] it was 6 nM.

Take `CCS(=O)(=O)c1ccc(CC(=O)Nc2cc(Cl)c(C3(c4noc(-c5cccc(F)c5)n4)CC3)c(Cl)c2)cc1` [Example 6, N-(3,5-dichloro-4-(1-(5-(3-fluorophenyl)-1,2,4-oxadiazol-3-yl)cyclopropyl)phenyl)-2-(4-(ethylsulfonyl)phenyl)acetamide]: the results for the IC50 (on full length human RORγt; in experiment [1]) were 3.4 nM and 35 nM, respectively.

For the compound `CCS(=O)(=O)c1ccc(CC(=O)Nc2cc(Cl)c(C3(c4noc(-c5ccc(OC)nc5)n4)CC3)c(Cl)c2)cc1` [Example 20, N-(3,5-dichloro-4-(1-(5-(6-methoxypyridin-3-yl)-1,2,4-oxadiazol-3-yl)cyclopropyl)phenyl)-2-(4-(ethylsulfonyl)phenyl)acetamide], the IC50 against full length human RORγt amounted to 15.8 nM; in experiment [1], 11.3 nM.

For `CCS(=O)(=O)c1ccc(CC(=O)Nc2cc(Cl)c(C3(c4noc(-c5ccccc5)n4)CC3)c(Cl)c2)cc1` [Example 2, N-(3,5-dichloro-4-(1-(5-phenyl-1,2,4-oxadiazol-3-yl)cyclopropyl)phenyl)-2-(4-(ethylsulfonyl)phenyl)acetamide], the IC50 stood at 7 nM against full length human RORγt and 25 nM in experiment [1].

For `CCS(=O)(=O)c1ccc(CC(=O)Nc2cc(Cl)c(C3(c4noc(C5CCOCC5)n4)CC3)c(Cl)c2)cc1` [Example 27, N-(3,5-dichloro-4-(1-(5-(tetrahydro-2H-pyran-4-yl)-1,2,4-oxadiazol-3-yl)cyclopropyl)phenyl)-2-(4-(ethylsulfonyl)phenyl)acetamide], the values for the IC50 (against full length human RORγt; in experiment [1]) were 13 nM and 10.8 nM, respectively.
